Measurements from patent US10577346B2, “Benzobicycloalkane derivatives, their preparation and pharmaceutical use thereof” (priority 2016, dated 2020).

Key:
[1] = molecular target: T1, CYP3A4 (Homo sapiens, UniProt P08684); experiment: Inhibition of CYP enzyme (CYP3A4, midazolam substrate, liver microsomes); type: in vitro ADME; details: for inhibition at 5 min, 1 μM: human, pH 7.4, midazolam (M) as probe substrate; for CYP3A4(M) inhibition rate/1 μM: midazolam (M) as probe substrate
T1 construct: from tissue; host or cells: liver microsomes
T1 sequence (P08684 whole entry): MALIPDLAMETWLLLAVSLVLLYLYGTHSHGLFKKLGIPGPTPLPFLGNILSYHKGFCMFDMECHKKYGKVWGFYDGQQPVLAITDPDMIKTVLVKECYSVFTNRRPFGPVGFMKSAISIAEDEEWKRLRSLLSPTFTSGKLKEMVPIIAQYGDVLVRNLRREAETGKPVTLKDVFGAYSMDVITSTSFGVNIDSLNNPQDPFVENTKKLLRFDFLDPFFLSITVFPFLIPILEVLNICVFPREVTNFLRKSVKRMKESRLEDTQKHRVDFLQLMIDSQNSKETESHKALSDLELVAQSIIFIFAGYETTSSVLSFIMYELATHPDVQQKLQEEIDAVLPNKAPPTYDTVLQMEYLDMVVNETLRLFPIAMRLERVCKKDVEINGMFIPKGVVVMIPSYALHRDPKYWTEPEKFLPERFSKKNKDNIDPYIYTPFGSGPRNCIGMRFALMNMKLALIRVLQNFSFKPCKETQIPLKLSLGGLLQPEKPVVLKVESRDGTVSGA
Procedure: Assay 3: Inhibition of CYP Enzyme
1. 0.1 M potassium phosphate buffer (K-buffer), pH 7.4 was preheated;
100 mM K-Buffer: 9.5 mL Stock A and 40.5 mL Stock B were mixed, brought to a total volume of 500 mL with Milli-Q water, and titrated to pH 7.4 of KOH or H3PO4;
Stock A (1 M monobasic potassium phosphate): 136.5 g of monobasic potassium phosphate was dissolved in 1 L of Milli-Q water; and
Stock B (1 M dibasic potassium phosphate): 174.2 g of dibasic potassium phosphate was dissolved in 1 L of Milli-Q water.
2. Serial dilutions of test compounds and reference inhibitors (400×) were prepared in a 96-well plate:
2.1 8 μL of 10 mM test compounds was transferred to 12 μL of ACN. 2.2 A separate inhibitor solution was prepared for reference: 8 μL of inhibitor DMSO stock was added with 12 μL of ACN.
2.3 A 1:3 serial dilution was prepared with a DMSO:ACN mixture (v/v: 40:60).
3. 4×NADPH cofactor (66.7 mg NADPH dissolved in 10 mL 0.1 M K-buffer, pH 7.4) was prepared.
4. 4× substrate (2 mL for each isoform) was prepared as indicated in the table below (Liver microsomes must be added on ice).
5. 0.2 mg/mL liver microsome solution (990 μL of 0.1 M K-buffer was added to each 10 μL of 20 mg/mL) was prepared on ice.
6. 200 μL of 0.2 mg/mL liver microsomes was added on ice to a 96-well plate and then 1 μL of test compound or reference compound was added into corresponding wells.
7. The following solutions were added to a 96-well plate (in duplicate) on ice:
7.1 30 μL of 2× test compounds and reference compound in 0.2 mg/mL liver microsome solution were added;
7.2 15 μL of 4× substrate solution was added.
8. The 96-well assay plate and NADPH solution were pre-heated at 37° C. for 5 minutes.
9. 15 μL of pre-heated 8 mM NADPH solution was added into the assay plates to initiate the reaction.
10. The 3A4 subtype was incubated at 37° C. for 5 min for.
11. The reaction was quenched by adding 120 μL of ACN containing an internal standard.
12. After quenching, the plates were shaked in a vibrator (IKA, MTS 2/4) for 5 min (600 rpm/min) and then centrifuged at 3, 750 rpm for 15 min (Allegra X-12R centrifuge).
13. After centrifugation, 50 μL of the supernatant from each well was taken into a 96-well plate containing 70 μL of wastons water and mixed for LC/MS analysis.

[2] = molecular target: T2, hERG potassium channel (Homo sapiens, UniProt Q12809); experiment: Inhibition of hERG potassium ion channel, manual whole-cell patch clamp in CHO hERG cells; type: cell-based; details: human, CHO cells stably expressing hERG
T2 construct: host or cells: CHO cells stably expressing hERG
T2 sequence (Q12809 whole entry): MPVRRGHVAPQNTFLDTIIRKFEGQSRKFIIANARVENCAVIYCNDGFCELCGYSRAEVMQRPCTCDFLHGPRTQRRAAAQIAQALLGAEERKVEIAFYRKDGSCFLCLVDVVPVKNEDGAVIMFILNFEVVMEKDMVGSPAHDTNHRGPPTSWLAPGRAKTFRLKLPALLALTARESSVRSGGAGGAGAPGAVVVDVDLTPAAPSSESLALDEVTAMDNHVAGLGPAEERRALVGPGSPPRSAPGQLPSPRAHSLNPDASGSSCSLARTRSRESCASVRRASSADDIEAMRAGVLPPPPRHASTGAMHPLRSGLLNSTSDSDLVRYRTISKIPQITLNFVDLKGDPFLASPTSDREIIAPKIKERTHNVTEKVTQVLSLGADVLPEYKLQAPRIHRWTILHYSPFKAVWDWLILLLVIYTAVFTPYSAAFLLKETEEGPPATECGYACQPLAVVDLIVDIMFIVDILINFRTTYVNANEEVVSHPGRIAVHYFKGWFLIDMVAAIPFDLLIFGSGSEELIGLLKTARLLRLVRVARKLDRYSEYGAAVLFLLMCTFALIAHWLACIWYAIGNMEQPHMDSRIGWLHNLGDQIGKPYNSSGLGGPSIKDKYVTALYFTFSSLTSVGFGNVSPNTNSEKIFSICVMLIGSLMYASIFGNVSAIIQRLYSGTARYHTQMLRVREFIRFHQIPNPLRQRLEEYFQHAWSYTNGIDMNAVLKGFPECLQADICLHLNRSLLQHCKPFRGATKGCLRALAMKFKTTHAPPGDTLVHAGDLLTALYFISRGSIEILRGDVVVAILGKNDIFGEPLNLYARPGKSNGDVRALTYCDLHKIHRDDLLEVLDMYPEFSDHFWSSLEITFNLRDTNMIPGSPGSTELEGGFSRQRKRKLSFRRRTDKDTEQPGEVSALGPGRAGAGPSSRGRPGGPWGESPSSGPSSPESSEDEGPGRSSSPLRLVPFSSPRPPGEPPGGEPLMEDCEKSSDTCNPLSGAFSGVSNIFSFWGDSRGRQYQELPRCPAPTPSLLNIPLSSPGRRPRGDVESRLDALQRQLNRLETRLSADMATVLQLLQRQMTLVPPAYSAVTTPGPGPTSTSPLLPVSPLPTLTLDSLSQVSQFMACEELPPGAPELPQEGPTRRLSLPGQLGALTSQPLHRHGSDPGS
Procedure: (§1) Assay 2: Inhibition of hERG Potassium Ion Channel
(§2) 2.1.1 Cells used in this experiment were CHO cell lines transfected with hERG cDNA and stably expressing hERG channels (supplied by Sophion Bioscience, Denmark), with cell progeny being P15. Cells were cultured in medium containing the following ingredients Invitrogen): Ham's F12 medium, 10% (v/v) inactivated fetal bovine serum, […] hygromycin B, and […] Geneticin.
(§3) 2.1.2 CHO hERG cells were grown in Petri dishes containing the above medium and cultured in an incubator of 5% CO2 at 37° C. CHO hERG cells were transferred onto round glass plates in Petri dishes and grown on the same culture medium and culture conditions as above 24 h to 48 h prior to the electrophysiological experiments. The density of CHO hERG cells on each round glass plate must meet the requirements that the vast majority of cells are independent and separate.
(§4) 2.2 Experimental Solution
(§5) The following solutions (recommended by Sophion) were used for electrophysiological recording. The reagents used in this test were provided by Sigma.
(§6) 2.3 Electrophysiological Recording System
(§7) In this experiment, whole-cell current recording was performed using a manual patch clamp system (HEKA EPC-10 signal amplification and digital conversion system, purchased from HEKA Electronic, Germany). The round glass slide of which surface CHO hERG cells were grown on was placed in an electrophysiological recording slot under an inverted microscope. Extracellular fluid was perfused continuously in the recording slot (approximately 1 ml per minute). Conventional whole-cell patch clamp current recording technique was used in the experiment. Unless otherwise specified, the experiments were performed at normal room temperature (25° C.). Cell patch clamp at −80 mV. Cell patch clamp voltage was depolarized to +20 mV to activate hERG potassium channel, and to −50 mV after 5 sec to eliminate inactivation and generate tail currents. The tail current peak was used as a value for hERG current. When the hERG potassium current recorded in the above steps became steady under continuous perfusion of the extracellular fluid in the recording slot, the subject drug to be tested could be added to the perfusion until the inhibition of the hERG current by the drug reached a steady state. Typically, the most recent three consecutive current recording lines were generally used as a measure to determine whether the state was stable. After reaching a steady state, it was perfused with extracellular fluid for washing until the hERG current returned to the value before the drug adding. One or more drugs, or multiple concentrations of the same drug, could be tested on a single cell but it was necessary to rinse with extracellular fluid before testing a different drug. Cisapride (purchased from Sigma) was used as a positive control in the experiments to ensure normal quality of the cells used.
(§8) 2.4 Treatment and Dilution of Compounds
(§9) The compound was first dissolved in DMSO to a concentration of 10 mM and then the compound was diluted 1000-fold to a final test concentration of 10 μM using extracellular fluid.
(§10) The final concentration of DMSO in the compound test solution was 0.1%. The test concentration of cisapride as a positive control was 0.1 μM. All stock solutions and test solutions were subjected to regular 5-10 minutes of sonication and shaking to ensure complete dissolution of the compound.
(§11) The test data were analyzed by the data analysis software provided by HEKA Patchmaster (V2x73.2), Microsoft Excel and Graphpad Prism 5.0.

[3] = molecular target: T3, hERG potassium ion channel (Homo sapiens, UniProt Q12809); experiment: as above; type: cell-based; details: CHO cells stably expressing hERG
T3 construct: host or cells: CHO cells stably expressing hERG
T3 sequence (Q12809 whole entry): as above
Procedure: as §1, §2, §3, §4, §5, §6, §7, §8, §9, §10, §11

[4] = in vivo; details: male, SD, rat, 10 mg/kg, oral administration of dezocine in rats, Dezocine dosed at 10 mpk
Procedure: LC-MS/MS method was applied for the determination of the drug concentration in plasma at different times after the example compounds were administered via gavage to rats in order to study the pharmacokinetic behavior of the compounds of the disclosure in vivo in rats and evaluate their pharmacokinetic characteristics.
Test animals: healthy adult male SD rats (weight 200-300 g, 3, fasted), provided by SLAC company;
Administration and dosage: 16 mg/kg or 24 mg/kg, 10 mL/kg, 5% 1,2-propanediol (1,2-Propanediol, Shanghai Titan Technology Co., Ltd. Lot No.: P1057349)) was administered via oral gavage to SD rats;
Blood collection: firstly, the animals which were selected to meet the test requirements prior to administration were weighed and labelled. The rats were bound before the blood collection, about 150 μl of blood from each administered rat was taken at predetermined time points via orbital vein (blood was collected before administration and at 0.083, 0.25, 0.5, 1, 2, 4, 6, and 8 h after administration respectively, 9 time points in total). Blood was transferred to a 1.5 ml tube to which K2EDTA was added previously. The collected blood sample was put on wet ice, and centrifuged (2000 g, 5 min under 4° C.) to obtain plasma sample, the whole process of which was completed within 15 minutes after blood collection. All the samples were stored at approximately −70° C. until analysis. […]

[5] = cited from earlier work

SMILES	hERG inhibition rate/10 μM [3]	CYP3A4(M) inhibition rate/1 μM [1]	also measured
CN1CCN(C(=O)Oc2ccc3c(c2)[C@@]2(C)CCCCC[C@@H](C3)[C@@H]2N)CC1 [Compound Z-2]			inhibition at 5 min, 1 μM [1]: 19.8%
COCCOCCN(C)C(=O)Oc1ccc2c(c1)[C@@]1(C)CCCCC[C@@H](C2)[C@@H]1N [Compound Z-14]			inhibition at 5 min, 1 μM [1]: 49.5%
COCCCNC(=O)Oc1ccc2c(c1)[C@@]1(C)CCCCC[C@@H](C2)[C@@H]1N [Compound Z-19]			inhibition at 5 min, 1 μM [1]: 33.6%
C[C@@]12CCCCC[C@@H](Cc3ccc(OC(=O)Nc4ccc(O)cc4)cc31)[C@@H]2N [Compound Z-23]			inhibition at 10 μM [2]: 71.5%; inhibition at 5 min, 1 μM [1]: 89.2%
C[C@@]12CCCCC[C@@H](Cc3ccc(OC(=O)Nc4ccc(F)cc4)cc31)[C@@H]2N [Compound Z-35]			inhibition at 5 min, 1 μM [1]: 88.1%
C[C@@]12CCCCC[C@@H](Cc3ccc(OC(=O)N4CCC(N5CCCCC5)CC4)cc31)[C@@H]2N [Compound Z-49]			inhibition at 10 μM [2]: 14.4%; inhibition at 5 min, 1 μM [1]: 7.28%
CN(CC(=O)O)C(=O)Oc1ccc2c(c1)[C@@]1(C)CCCCC[C@@H](C2)[C@@H]1N [Compound Z-100]			inhibition at 5 min, 1 μM [1]: 1.6%
C[C@@]12CCCCC[C@@H](Cc3ccc(OC(=O)N4CCC(N5CCOCC5)CC4)cc31)[C@@H]2N [Compound Z-109]	17.20%	6.6%	
C[C@@]12CCCCC[C@@H](Cc3ccc(OC(=O)NC4CCOCC4)cc31)[C@@H]2N [Compound Z-110]	13.32%	28.0%	
COC1CN(C(=O)Oc2ccc3c(c2)[C@@]2(C)CCCCC[C@@H](C3)[C@@H]2N)C1 [Compound Z-111]		45.7%	
CCN(CCN(C)C)C(=O)Oc1ccc2c(c1)[C@@]1(C)CCCCC[C@@H](C2)[C@@H]1N [Compound Z-113]	16.02%	28.6%	
C[C@@]12CCCCC[C@@H](Cc3ccc(OC(=O)N4CC(O)C4)cc31)[C@@H]2N [Compound Z-114]	17.07%	11.8%	
CC12CCCCCC(Cc3ccc(OC(=O)NC4CC(O)C4)cc31)C2N (stereo not drawn) [Compound Z-115]	12.90%	18.0%	
C[C@@]12CCCCC[C@@H](Cc3ccc(OC(=O)N4CCS(=O)(=O)CC4)cc31)[C@@H]2N [Compound Z-116]	11.22%	14.2%	
C[C@@]12CCCCC[C@@H](Cc3ccc(OC(=O)NC4COC4)cc31)[C@@H]2N [Compound Z-117]	20.59%	23.8%	
C[C@@]12CCCCC[C@@H](Cc3ccc(OC(=O)NCCO)cc31)[C@@H]2N [Compound Z-118]		8.8%	
COc1ccc(NC(=O)Oc2ccc3c(c2)[C@@]2(C)CCCCC[C@@H](C3)[C@@H]2N)nc1 [Compound Z-119]	78%		
C[C@@]12CCCCC[C@@H](Cc3ccc(OC(=O)NC4(CO)CC4)cc31)[C@@H]2N [Compound Z-122]	1.91%	17.0%	

SMILES	hERG inhibition rate/10 μM [3]	CYP3A4(M) inhibition rate/1 μM [1]	also measured
CN(C)C1CCN(C(=O)Oc2ccc3c(c2)[C@@]2(C)CCCCC[C@@H](C3)[C@@H]2N)CC1 [Compound Z-123]	8.84%	0%	
C[C@@]12CCCCC[C@@H](Cc3ccc(OC(=O)N4CCC(O)CC4)cc31)[C@@H]2N [Compound Z-124]		19.6%	
CC(=O)N1CCN(C(=O)Oc2ccc3c(c2)[C@@]2(C)CCCCC[C@@H](C3)[C@@H]2N)CC1 [Compound Z-125]		18.1%	
CC(CO)NC(=O)Oc1ccc2c(c1)C1(C)CCCCCC(C2)C1N (stereo not drawn) [Compound Z-126]	4.92%	3.6%	
CN(CCO)C(=O)Oc1ccc2c(c1)[C@@]1(C)CCCCC[C@@H](C2)[C@@H]1N [Compound Z-127]	9.95%	17.4%	
C[C@@]12CCCCC[C@@H](Cc3ccc(OC(=O)N4CCC(CO)CC4)cc31)[C@@H]2N [Compound Z-128]		41.9%	
CC1CNCCN1C(=O)Oc1ccc2c(c1)C1(C)CCCCCC(C2)C1N (stereo not drawn) [Compound Z-129]		4.0%	
C[C@@]12CCCCC[C@@H](Cc3ccc(OC(=O)N4CCC(C(=O)O)CC4)cc31)[C@@H]2N [Compound Z-130]	3.24%	13.0%	
CCN(C(=O)Oc1ccc2c(c1)[C@@]1(C)CCCCC[C@@H](C2)[C@@H]1N)C1CCN(C)CC1 [Compound Z-131]	39.88%	26.7%	
COC(=O)C1CCCN(C(=O)Oc2ccc3c(c2)C2(C)CCCCCC(C3)C2N)C1 (stereo not drawn) [Compound Z-135]		21.3%	
CC12CCCCCC(Cc3ccc(OC(=O)N4CCCC(C(=O)O)C4)cc31)C2N (stereo not drawn) [Compound Z-136]		0%	
C[C@@]12CCCCC[C@@H](Cc3ccc(OC(=O)N4CCC4)cc31)[C@@H]2N [Compound Z-137]		45.3%	
C[C@@]12CCCCC[C@@H](Cc3ccc(OC(=O)NC(CO)CO)cc31)[C@@H]2N [Compound Z-138]		0%	
CN1CCC(NC(=O)Oc2ccc3c(c2)[C@@]2(C)CCCCC[C@@H](C3)[C@@H]2N)CC1 [Compound Z-140]		8.7%	
CN(C(=O)Oc1ccc2c(c1)[C@@]1(C)CCCCC[C@@H](C2)[C@@H]1N)C1COC1 [Compound Z-141]		30.8%	
CN(C)CCNC(=O)Oc1ccc2c(c1)[C@@]1(C)CCCCC[C@@H](C2)[C@@H]1N [Compound Z-144]		22.2%	
C[C@@]12CCCCC[C@@H](Cc3ccc(O)cc31)[C@@H]2N [Dezocine, dezocine]			AUC [4]: 58.6 ng·h/mL; oral bioavailability [5]: ≤ 5%
